ChEMBL document CHEMBL1287675, “Substituted spiro [2.3'] oxindolespiro [3.2″]-5,6-dimethoxy-indane-1″-one-pyrrolidine analogue as inhibitors of acetylcholinesterase” (Bioorg Med Chem Lett, 2010)

Target: Acetylcholinesterase (Homo sapiens, UniProt P22303)
Assay: Inhibition of human acetyl cholinesterase by Ellmann's method

Sequence of Acetylcholinesterase (P22303 whole entry): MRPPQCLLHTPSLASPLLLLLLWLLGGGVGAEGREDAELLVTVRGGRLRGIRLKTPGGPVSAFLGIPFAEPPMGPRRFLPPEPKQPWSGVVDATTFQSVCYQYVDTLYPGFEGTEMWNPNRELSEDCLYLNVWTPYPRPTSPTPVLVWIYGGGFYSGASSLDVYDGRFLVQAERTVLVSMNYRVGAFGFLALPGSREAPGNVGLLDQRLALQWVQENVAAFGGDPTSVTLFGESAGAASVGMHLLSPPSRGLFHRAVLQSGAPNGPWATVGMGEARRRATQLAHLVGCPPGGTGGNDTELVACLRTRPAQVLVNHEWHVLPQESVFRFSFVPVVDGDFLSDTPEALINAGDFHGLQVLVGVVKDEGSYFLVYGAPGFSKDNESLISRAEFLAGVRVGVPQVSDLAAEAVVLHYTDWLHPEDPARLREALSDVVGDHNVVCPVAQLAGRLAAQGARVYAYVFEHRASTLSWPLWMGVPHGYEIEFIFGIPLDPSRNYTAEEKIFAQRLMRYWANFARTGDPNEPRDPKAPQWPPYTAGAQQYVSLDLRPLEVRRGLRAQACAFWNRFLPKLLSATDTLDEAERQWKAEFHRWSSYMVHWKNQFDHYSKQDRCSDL

Row | Compound | IC50 [µM]
1 | COc1ccc(C2CN(C)C3(C(=O)Nc4ccc([N+](=O)[O-])cc43)C23Cc2cc(OC)c(OC)cc2C3=O)cc1OC (centres undefined) | 6.1
2 | COc1ccc(C2C(c3ccccc3)NC3(C(=O)Nc4ccccc43)C23Cc2cc(OC)c(OC)cc2C3=O)cc1OC (centres undefined) | 5.2
3 | COc1cc2c(cc1OC)C(=O)C1(C2)C(c2ccc(F)cc2)C(c2ccccc2)NC12C(=O)Nc1ccc(Cl)cc12 (centres undefined) | 9.86
4 | COc1ccc(C2C(c3ccccc3)NC3(C(=O)Nc4ccc(Cl)cc43)C23Cc2cc(OC)c(OC)cc2C3=O)cc1OC (centres undefined) | 8.26
5 | COc1cc2c(cc1OC)C(=O)C1(C2)C(c2ccccc2Cl)C(c2ccccc2)NC12C(=O)Nc1ccc(Cl)cc12 (centres undefined) | 12.2
6 | COc1cc2c(cc1OC)C(=O)C1(C2)C(c2ccc(F)cc2)C(c2ccccc2)NC12C(=O)Nc1ccc([N+](=O)[O-])cc12 (centres undefined) | 14.3
7 | COc1ccc(C2C(c3ccccc3)NC3(C(=O)Nc4ccc([N+](=O)[O-])cc43)C23Cc2cc(OC)c(OC)cc2C3=O)cc1OC (centres undefined) | 15.4
8 | COc1cc2c(cc1OC)C(=O)C1(C2)C(c2ccccc2)C(c2ccccc2)NC12C(=O)Nc1ccc([N+](=O)[O-])cc12 (centres undefined) | 3.7
9 | COc1cc2c(cc1OC)C(=O)C1(C2)C(c2ccccc2Cl)C(c2ccccc2)NC12C(=O)Nc1ccc([N+](=O)[O-])cc12 (centres undefined) | 4.2
10 | COc1cc2c(cc1OC)C(=O)C1(C2)C(c2ccc(F)cc2)CN(C)C12C(=O)Nc1ccccc12 (centres undefined) | 2.12
11 | COc1ccc(C2CN(C)C3(C(=O)Nc4ccccc43)C23Cc2cc(OC)c(OC)cc2C3=O)cc1OC (centres undefined) | 4.2
12 | COc1cc2c(cc1OC)C(=O)C1(C2)C(c2ccccc2)CN(C)C12C(=O)Nc1ccccc12 (centres undefined) | 3.12
13 | COc1cc2c(cc1OC)C(=O)C1(C2)C(c2ccccc2Cl)CN(C)C12C(=O)Nc1ccccc12 (centres undefined) | 4.3
14 | COc1cc2c(cc1OC)C(=O)C1(C2)C(c2ccc(F)cc2)CN(C)C12C(=O)Nc1ccc(Cl)cc12 (centres undefined) | 3.7
15 | COc1ccc(C2CN(C)C3(C(=O)Nc4ccc(Cl)cc43)C23Cc2cc(OC)c(OC)cc2C3=O)cc1OC (centres undefined) | 4.2
16 | COc1cc2c(cc1OC)C(=O)C1(C2)C(c2ccccc2)CN(C)C12C(=O)Nc1ccc(Cl)cc12 (centres undefined) | 11.2
17 | COc1cc2c(cc1OC)C(=O)C1(C2)C(c2ccccc2Cl)CN(C)C12C(=O)Nc1ccc(Cl)cc12 (centres undefined) | 6.6
18 | COc1cc2c(cc1OC)C(=O)C1(C2)C(c2ccc(F)cc2)CN(C)C12C(=O)Nc1ccc([N+](=O)[O-])cc12 (centres undefined) | 8.6
19 | COc1cc2c(cc1OC)C(=O)C1(C2)C(c2ccccc2)CN(C)C12C(=O)Nc1ccc([N+](=O)[O-])cc12 (centres undefined) | 13.2
20 | COc1cc2c(cc1OC)C(=O)C1(C2)C(c2ccccc2Cl)CN(C)C12C(=O)Nc1ccc([N+](=O)[O-])cc12 (centres undefined) | 7.6
21 | COc1cc2c(cc1OC)C(=O)C1(C2)C(c2ccc(F)cc2)C(c2ccccc2)NC12C(=O)Nc1ccccc12 (centres undefined) | 6.86
22 | COc1cc2c(cc1OC)C(=O)C1(C2)C(c2ccccc2)C(c2ccccc2)NC12C(=O)Nc1ccccc12 (centres undefined) | 5.12
23 | COc1cc2c(cc1OC)C(=O)C1(C2)C(c2ccccc2Cl)C(c2ccccc2)NC12C(=O)Nc1ccccc12 (centres undefined) | 7.3
24 | COc1cc2c(cc1OC)C(=O)C1(C2)C(c2ccccc2)C(c2ccccc2)NC12C(=O)Nc1ccc(Cl)cc12 (centres undefined) | 7.26
